From PMC5554220, “A Novel Aldosterone Antagonist Limits Renal Injury in 5/6 Nephrectomy” (Scientific Reports, 2017) come the findings set out here.

One data set deals with Nx rats. Briefly: Preliminary experiments to determine the doses of Eple and Ly. Format: in vivo. As for the experimental part: Preliminary experiments were performed to exclude the possibility that any differences between Eple and Ly, both in monotherapy and as add-ons to L, were simply due to the use of inadequately low doses of either compound. In the first set of experiments, Nx rats received Eple at the recommended dose of 85 mg/kg, and at 150 mg/kg, higher than in most studies reported so far. […] Other Nx rats received Ly at either 12 mg/kg (the recommended dose) or 20 mg/kg. […] Based on these preliminary results, we set the doses of Eple and Ly at 150 mg/kg and 20 mg/kg, respectively.

Data set [1] concerns rats with 5/6 renal ablation (Nx). Briefly: Protocol 2 (late treatment), 5/6 renal ablation (Nx). The format is in vivo, male Munich-Wistar rats. The note with it: Ly as an add-on to L, Day 150. The text has this:
One-hundred forty-five adult male Munich-Wistar rats, obtained from a local facility at the Faculty of Medicine, University of São Paulo, weighing between 220 and 250 g, were used in this study. All experimental procedures were approved by the local Research Ethics Committee (Comissão de Ética para Análise de Projetos de Pesquisa do Hospital das Clínicas da Faculdade de Medicina da Universidade de São Paulo, CAPPesq, process n° 0905/09), and carried out following strictly our institutional guidelines and current international standards for manipulation and care of laboratory animals. Body weights and general conditions were assessed daily. Five-sixths renal ablation (Nx) was performed as a single-step procedure under anesthesia with ketamine 50 mg/kg and xylazine 10 mg/kg im. After ventral laparotomy, the right kidney was excised and two or three branches of the left renal artery were ligated, so as to promote infarction of two-thirds of the left kidney. The operation was invariably well tolerated. Sham-operated rats underwent anesthesia and manipulation of the renal pedicles without removal of renal mass. After surgery, rats received enrofloxacin and, upon recovery, had free access to tap water and regular rodent chow containing 0.5 Na and 22% protein (Nuvital Labs, Curitiba, Brazil), and were kept at 23 ± 1 °C and 60 ± 5% relative air humidity, under an artificial 12–12 hour light/dark cycle. Rats were then treated following two different experimental protocols (described later).
In Protocol 2, adult male Munich-Wistar rats were subjected to Nx as described earlier, and left untreated for two months. At this time, TCP and UalbV were assessed as described earlier. Rats with TCP ≤ 170 mmHg or UalbV ≤ 40 mg/day were excluded from the study. The remaining […] Nx rats were divided into four experimental groups: Nx + V (N = 14), untreated Nx rats; Nx + L (N = 15), receiving oral L, 50 mg/kg in drinking water; Nx + L + Eple (N = 14), receiving L and Eple (N = 14), 150 mg/kg/day; and Nx + L + Ly (N = 14), receiving L and Ly (20 mg/kg/day) as described before. A group of S rats (N = 16) was also included. All groups were followed for 90 days after treatments were started (150 days after nephrectomy), with monthly measurement of TCP and UalbV. At the end of this period, rats were anesthetized, blood was collected, and the renal tissue was perfusion-fixed and prepared for histomorphometric and immunohistochemical examination in the same manner as for Protocol 1.
Histomorphometric analysis was performed blindly by two independent observers. The extent of glomerular injury was estimated, in PAS-stained sections, by determining the percentage of glomeruli with sclerotic lesions. The fraction of the renal cortical area occupied by interstitial tissue (%INT) was estimated in 25 consecutive microscopic fields of Masson-stained sections by a point-counting technique, at a final magnification of 200X, under a 144-point grid.
Immunohistochemistry was performed on 4-μm-thick sections, mounted on glass slides precoated with 2% silane. Sections were deparaffinized and rehydrated by conventional techniques, then heated in citrate buffer for antigen retrieval and incubated overnight with the primary antibody at 4 °C (no antibody in negative control experiments). Primary antibodies used were: monoclonal mouse anti-rat ED-1 (Serotec, Oxford, UK); polyclonal rabbit anti-human AngII (Peninsula Laboratories, San Carlos, CA); and polyclonal rabbit anti-collagen I (Abcam, Cambridge, UK).
For ED-1 detection, sections were preincubated with 5% normal rabbit serum to prevent nonspecific binding, then incubated overnight at 4 °C with the primary antibody diluted in BSA at 1%. […]

Turning to `O=c1[nH]c2ccc(/C=C3\c4ccc(F)cc4COc4cc(F)ccc43)cc2[nH]1` [Ly], the “Maximal nontoxic dose, defined by stunting of body growth” value in the data set with Nx rats is on record as 20 mg/kg. Besides, in the data set on Nx rats (Ly 12 mg/kg vs 20 mg/kg), the “Dose-response effect on the parameters studied” value is recorded as “A dose-response effect was observed for most parameters”. The Body growth result with Nx rats (Ly 30 mg/kg) was “severe growth stunting”. Also, the “Interstitial expansion (cortical interstitial area)” value in data set [1] was “reduced to levels significantly lower than in the Nx + V group”.
